# In patent US7202024B2, “bbc3 Gene promoter and methods for identifying modulators of apoptosis and bbc3 gene expression using a bbc3 gene promoter” (Immunogen Inc., priority 2001, dated 2007):
# Peptide text beside a SMILES is read from it. * marks the point of attachment. Cbz = O=C(OCc1ccccc1)*; CH2F = FC*
# Legend:
# [1] = system: bbc3 mRNA; test: Northern blot of bbc3 mRNA in E1a/Ras/p53MER mouse fibroblast cell line; format: cell-based; settings: p53-estrogen receptor fusion cells, 4-OHT 100 nM, 5 hours
# Description: (§1) Northern blots were hybridized with a murine bbc3 cDNA probe, followed by re-hybridization with an actin probe.
# Cell death induced by etoposide and other DNA-damaging drugs in murine fibroblasts is mediated, at least in part, by the p53 tumor suppressor (Levine, A. J., Cell 88:323–31 (1997); Vousden, K. H., Cell 103:691–4 (2000)).
# (§2) All cell lines used were obtained from ATCC, unless otherwise noted. HeLa/Bcl-XL cells were generated by stable transfection of HeLa cells with a vector encoding a Flag-epitope tagged BCl-xL. Murine myeloid leukemia M1 cells containing a temperature sensitive p53-val135 mutant (M1p53ts), and E1A/ras transformed p53^−/−mouse embryonic fibroblasts containing a p53-estrogen receptor fusion, have been described previously (Vater, C. A., et al., Oncogene 13:739–48 (1996); Yonish-Rouach, E., et al., Nature 352:345–7 (1991)).
# (§3) Total RNA was isolated from mouse thymocytes (RNeasy system, Qiagen). Poly(A)+RNA (FastTract system, Invitrogen) was prepared in all other experiments. 10 μg of total RNA or 3 μg of poly(A)+RNA per lane was denatured and separated by electrophoresis in 1% formaldehyde agarose gels. Northern blotting was performed following standard methods.
# [2] = system: Bbc3 protein; test: Western blot of Bbc3 protein in HT29 cells; format: cell-based, human; settings: for ability of serum to suppress Bbc3 protein levels: HT29 cells in serum, 50 μM LY294002, 10 μM PD98059, 30 μM AG1478 or 50 μM AG1024; for ability of serum to suppress Bbc3 protein levels / Bbc3 protein expression: 24 hrs; for Bbc3 protein expression: 100 ng/ml IGF-1, 50 ng/ml EGF or 25 ng/ml PDGF
# Protocol: (§4) HT29 cells were incubated for one day in the absence of serum (−), and then incubated in media containing either serum, 100 ng/ml IGF-1, 50 ng/ml EGF, or 25 ng/ml PDGF, for 24 hrs. Bbc3 was detected by western blot analysis, followed by sequential probing of the blot with anti-Bax and anti-Bcl-xL antibodies.
# HT29 cells were cultured as in FIG. 6B and then incubated for 24 hrs in media containing either serum, 100 ng/ml IGF-1, or 100 ng/ml IGF-1 in the presence of 50 μM LY294002 (added 1 hr prior to IGF-1). Bbc3 was detected by western blot analysis.
# HT29 cells were grown in the presence of serum (lane 1), and then incubated for 24 hrs in the absence of serum, or in the presence of serum supplemented with 50 μMLY294002.
# HT29 cells were incubated for one day in the absence of serum (−), and then incubated in media containing either serum, 50 ng/ml EGF, or 50 ng/ml EGF+30 nM AG1478, for 24 hrs. Bbc3 was detected by western blot analysis.
# HT29 cells were cultured in the presence of serum for one day (+) and then incubated for 24 hrs with serum or without serum, or in the presence of serum supplemented with either 10 μM PD98059, 30 μM AG1478, or 50 μM AG1024. Bbc3 was detected by western blot analysis, followed by reprobing of the blot with anti-Bax.
# (§5) A mouse monoclonal antibody, KM140, was made against a recombinant GST-Bbc3 fusion protein. The KM140 epitope was mapped to residues 73–76 by probing a blot with arrayed overlapping Bbc3 peptides (Research Genetics). Cells were plated at 3–10×10^6 cells per 100 mm dish in either serum containing (10% FBS), or serum free media (0% FBS, 0.1% BSA). Cell lysates were prepared, electrophoresed (100 to 200 μg per lane) on 4–20% polyacrylamide reducing gels, and analyzed by western blotting as described previously (Chittenden, T., et al., EMBO J. 14:5589–96 (1995)).
# [3] = system: bbc3 mRNA; test: Northern blot of bbc3 mRNA in NIH3T3 cells; format: cell-based, murine; settings: etoposide 50 μM, 6 hours
# Protocol: as §1
# To evaluate whether the activity of bbc3 might be under transcriptional control, the expression of bbc3 was examined in response to apoptotic stimuli likely to involve new mRNA/protein synthesis.
# as §3
# [4] = system: PARP; test: Western blot of PARP cleavage in serum-starved Jurkat cells; format: cell-based, human; settings: without serum 24 hrs, z-VAD 100 μM
# Description: (§6) Bbc3 and PARP were detected by western blot analysis.
# (§7) Deprivation of serum is a strong pro-apoptotic stimulus for many cultured tumor cell lines, triggering cell death or sensitizing cells to other apoptotic stimuli. Thus, the effect of serum deprivation on bbc3 mRNA expression and Bbc3 protein levels was also examined, using a monoclonal antibody generated against recombinant human Bbc3. A striking increase in Bbc3 protein levels was observed upon serum deprivation in multiple human tumor cell lines (FIG. 5B), including cell lines that lack functional p53. […] Therefore, the induction of Bbc3 precedes caspase activation, and is not simply a response to the engagement of the cell death program.
# as §5
# [5] = system: Bbc3 protein; test: Western blot of Bbc3 in serum-starved Jurkat cells; format: cell-based, human; settings: without serum 24 hrs, z-VAD 100 μM
# Description: as §6, §7, §5
# [6] = target: GST-Bcl-xL (Homo sapiens, UniProt Q07817); test: Bcl-xL competition binding assay (ELISA, immobilized Bak BH3 peptide); settings: competition with immobilized Bak BH3 peptide
# GST-Bcl-xL, sequence (Q07817 whole entry): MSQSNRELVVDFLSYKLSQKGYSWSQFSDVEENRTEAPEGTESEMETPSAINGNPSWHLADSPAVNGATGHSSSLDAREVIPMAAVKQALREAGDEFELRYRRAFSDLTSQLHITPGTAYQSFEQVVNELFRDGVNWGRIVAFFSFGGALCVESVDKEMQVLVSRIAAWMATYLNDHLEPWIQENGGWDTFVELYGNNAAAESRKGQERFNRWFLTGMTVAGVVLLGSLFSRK
# Protocol: Binding of GST-Bcl-xL to an immobilized Bak BH3 peptide was measured by ELISA (triplicate samples, +S.D.), in the presence of the indicated concentrations of a competing synthetic Bbc3 BH3 or Bak BH3 peptide.
# Cell lysates were prepared and co-immunoprecipitation assays were performed as described previously (Chittenden, T., et al., EMBO J. 14:5589–96 (1995)). The Bcl-xL competition binding assay was performed as previously described (Zhou, X. M., et al., J. Biol. Chem. 275:25046–51 (2000)), using synthetic BH3 peptides comprising residues 133–152 of Bbc3, and residues 70–89 of Bak.
# [7] = system: Bax; test: Western blot of Bax in HT29 cells; format: cell-based, human; settings: serum-starved HT29 cells, 24 hrs; 100 ng/ml IGF-1 or 50 ng/ml EGF
# Protocol: as §4, §5
# [8] = system: Bcl-xL; test: Western blot of Bcl-xL in HT29 cells; format: cell-based, human; settings: serum-starved HT29 cells, 24 hrs; 100 ng/ml IGF-1 or 50 ng/ml EGF
# Protocol: as §4, §5
# [9] = system: bbc3 gene promoter; test: bbc3 gene promoter luciferase reporter assay (pGL3/0.9) in HeLa/Bcl-xL cells; format: cell-based, human; settings: pGL3/0.9, no serum, 100 ng/ml IGF-1, 24 hrs
# Protocol: The pGL3/0.9 bbc3 gene promoter luciferase reporter plasmid was transfected into HeLa-Bcl-xL cells. At 24 hrs after transfection, cells were incubated for an additional 24 hrs in the presence of 20% serum (+) with or without 50 μM LY294002, or in the absence of serum (−) with or without 100 ng/ml IGF-1. Luciferase activity was measured and normalized for transfection efficiency (β-galactosidase).
# Additional experiments were performed to determine whether the bbc3 gene promoter was regulated by signal transduction pathways known to play a role in cell survival. A bbc3 gene promoter-luciferase reporter construct containing 0.9 kb of the bbc3 gene promoter region, was transfected into HeLa/Bcl-xL cells and the activity of the promoter measured by luciferase assays 48 hours after transfection. […] Thus, a PI-3 kinase dependent pathway controls, at least in part, the activity of the bbc3 gene promoter. […]
# Luciferase assays were performed using the Dual-Light System (Tropix) for the combined detection of luciferase and β-galactosidase. […] Luciferase and β-galactosidase activities were measured 24 hours following transfection. […] Cell culture medium was changed to either DMEM containing 20% serum, or DMEM without serum, 24 hours following transfection and luciferase/β-galactosidase levels were measured after an additional 24 hours of incubation. […]
# [10] = system: bbc3 mRNA; test: Northern blot of bbc3 mRNA in M1p53ts cells after temperature shift; format: cell-based, murine; settings: M1p53ts cells shifted to 32° C. for 6 hours in the presence of IL-6
# Description: as §1
# (Yonish-Rouach, E., et al., Nature 352:345–7 (1991)). […] (FIG. 3C). […] (FIG. 3C).
# as §2, §3
compound,measurement,setting,value
4-hydroxytamoxifen [4-OHT],bbc3 mRNA levels,[1],sufficient to induce bbc3 mRNA levels
COc1cc2ncnc(Nc3cccc(Cl)c3)c2cc1OC [AG1478],ability of serum to suppress Bbc3 protein levels,[2],blocked the ability of EGF and serum to suppress Bbc3 protein expression
same,ability of EGF to suppress Bbc3 protein expression,"[2]; serum-starved HT29 cells, 50 ng/ml EGF + 30 nM AG1478, 24 hrs",blocked the ability of EGF and serum to suppress Bbc3 protein expression
COc1cccc(-c2cc(=O)c3ccccc3o2)c1N [PD98059],ability of serum to suppress Bbc3 protein levels,[2],impaired the ability of serum to suppress Bbc3 protein expression
COc1cc([C@@H]2c3cc4c(cc3[C@@H](O[C@@H]3O[C@@H]5CO[C@@H](C)O[C@H]5[C@H](O)[C@H]3O)[C@H]3COC(=O)[C@H]23)OCO4)cc(OC)c1O [etoposide],bbc3 mRNA levels,[3],rapid induction of bbc3 mRNA levels
CC(C)(C)c1cc(C=C(C#N)C#N)cc(Br)c1O [tyrphostin AG1024],ability of serum to suppress Bbc3 protein levels,[2],impaired the ability of serum to suppress Bbc3 protein expression
CC(NC(=O)C(NC(=O)OCc1ccccc1)C(C)C)C(=O)NC(CC(=O)O)C(=O)CF (stereo not drawn) [z-VAD] (Cbz-Val-Ala-Asp-CH2F; configuration not given here),cleavage of the caspase substrate PARP,[4],"prevented cleavage of the caspase substrate, PARP"
same,induction of Bbc3 protein levels by serum deprivation,[5],no impact on the induction of Bbc3 protein levels
Bbc3 BH3 peptide: 20 amino acid synthetic peptide encompassing the Bbc3 BH3 domain (residues 133 to 152) (WAREIGAQLRRMADDLNAQY),binding affinity to recombinant GST-Bcl-xL in vitro,[6],affinity comparable to a previously characterized Bak BH3 peptide
"EGF: growth factor with broad anti-apoptotic activity (NSDSECPLSHDGYCLHDGVCMYIEALDKYACNCVVGYIGERCQYRDLKWWELR; UniProt P01133 971-1023, looked up)",Bax protein level,[7],no effect
same,Bcl-xL protein level,[8],no effect
same,Bbc3 protein expression,[2]; serum-starved HT29 cells,strongly inhibited Bbc3 protein expression
IGF-1: growth factor with broad anti-apoptotic activity,Bax protein level,[7],no effect
same,induction of bbc3 gene promoter activity (luciferase) in the absence of serum,[9],substantially reduced
same,Bcl-xL protein level,[8],no effect
same,Bbc3 protein expression,[2]; serum-starved HT29 cells,strongly inhibited Bbc3 protein expression
"IL-6: IL-6, which suppresses apoptosis induced by p53 in M1 cells",induction of bbc3 mRNA by wild-type p53,[10],did not prevent induction of bbc3 mRNA
PDGF,Bbc3 protein expression,[2]; serum-starved HT29 cells,failed to suppress Bbc3 levels
